SMILES strings stand for the structures.

We go through 3 molecules from patent publication US20130315895A1, “COMBINATION OF A cMET INHIBITOR AND AN ANTIBODY TO HGF AND/OR cMET” (priority 2010, published 2013).

For data set [1], the system named is Human U87MG Glioblastoma. The experiment in a line: In vivo evaluation of Compound 45, alone and in combination with anti-HGF mAb HuL2G7, in human U87MG glioblastoma implanted nude mice (tumor growth delay method). The method, then: A. In Vivo Evaluation of Compound 45, Alone and in Combination with Anti-HGF mAb HuL2G7, in Human U87MG Glioblastoma Implanted Nude Mice
Female athymic nude mice (Harlan), 10 weeks of age, were fed ad libitum water (reverse osmosis, 1 ppm […]) and an irradiated standard rodent diet (NIH31 Modified and Irradiated) consisting of: 18% protein, 5% fat, and 5% fiber. Mice were housed on irradiated Enrich-o′-Cobs™ laboratory animal bedding in static microisolators on a 12-hour light cycle at 21-22° C. (70-72° F.) and 40-60% humidity.
The human U87MG glioblastoma was maintained in serial s.c. transplantation in nude mice. Mice were implanted subcutaneously in the flank with a 1 mm^3 fragment of U87MG glioblastoma. Tumors were monitored twice weekly then subsequently daily as the neoplasms reached the desired size, approximately 190 mm^3. At 13 days, when the tumors attained a size between 126-288 mm^3 in calculated tumor volume, the animals were pair-matched into various treatment groups (the mean tumor volume in each group was 184-192 mm^3). Estimated tumor volume was calculated using the formula:
(§1) where w=width and l=length in mm of a U87MG glioblastoma.
Compound 45 was produced as described above. Compound 45 was then prepared for administration in 30% Captisol/25 mM citrate at pH 3.0. HuL2G7 was then provided as a 19.0 mg/ml stock solution in normal saline. The stock solution was diluted with normal saline to provide the formulation for injection.
The concentration of each compound was such that the desired dose was delivered in a volume of 5 μl per gram body weight. Dosing solutions of Compound 45 were prepared fresh weekly and stored at room temperature. Dosing solutions of HuL2G7 were prepared fresh prior to each treatment and were stored under refrigeration along with the stock solution.
On Day 1, animals were pairmatched by tumor size into 16 groups of 10 mice each. Compound 45 was given p.o. at 10.8, 32.4 and 108 mg/kg qd×14. HuL2G7 was given i.v. at 1, 3 and 10 mg/kg qwk×2. Treatment with both agents either alone or in combination was initiated on Day 1. Mice treated with monotherapy received the vehicle used for the other agent. There was a vehicle control group which received the Captisol/citrate, pH 3.0 vehicle p.o. qd×14 as well as saline i.v. qwk×2. Treatment groups were compared for statistical significance to the vehicle control. Groups that received the combination were compared for statistical significance to the monotherapy groups that received the same dose of the two agents used in combination. The experiment was terminated on Day 44.
(§2) The tumor growth delay (TGD) method was used in this study; treatment-effected median increases in time to endpoint (TTE) of various treatment groups were compared to untreated and vehicle controls. In the TGD method, each animal was euthanized as a cancer death when its U87MG glioblastoma reached a size of 2000 mm^3. TTE values were determined for all groups based on the calculated day reaching endpoint as given by the formula: […]
where TTE is expressed in days, endpoint volume is in mm^3, b is the intercept, and m is the slope of the line obtained by linear regression of a log-transformed tumor growth data set. The data set is comprised of the first observation that exceeded the study endpoint volume and the three consecutive observations that immediately preceded the attainment of the endpoint volume. The calculated TTE is usually less than the day on which an animal is euthanized for tumor size. […] Animals classified as treatment related deaths (TR) or non-treatment-related metastatic deaths (NTRm) are assigned a TTE value equal to the day of death. Animals classified as non-treatment-related deaths (NTRu or NTRa) are excluded from TTE calculations. Treatment efficacy was determined from tumor growth delay (TGD), which is defined as the increase in the median TTE for a treatment group compared to the control group: […]

Data set [2] concerns Human U87MG Glioblastoma. The experiment in a line: In vivo evaluation of Compounds 3 and 45, alone and in combination with anti-HGF mAb HuL2G7, in human U87MG glioblastoma implanted nude mice (tumor growth delay method). The conditions noted are these: for induction of regressions: monotherapy p.o. qd x 14; for tumor growth delays / tumor growth delays (% of median TTE of control): monotherapy p.o. qd x 14 (Table 4: Cmpd 45 136.05 mg/kg, Cmpd 3 200 mg/kg). The procedure: B. In Vivo Evaluation of Compounds 3 and 45, Alone and in Combination with Anti-HGF mAb HuL2G7, in Human U87MG Glioblastoma Implanted Nude Mice
Female athymic nude mice (Harlan), 9 weeks of age, were fed ad libitum water (reverse osmosis, 1 ppm Cl2) and an irradiated standard rodent diet (NIH31 Modified and Irradiated) consisting of: 18% protein, 5% fat, and 5% fiber. Mice were housed on irradiated Enrich-O'Cobs™ laboratory animal bedding in static microisolators on a 12-hour light cycle at 21-22° C. (70-72° F.) and 40-60% humidity.
The human U87MG glioblastoma utilized in the present study was maintained in serial s.c. transplantation in nude mice. Mice were implanted subcutaneously in the flank with a 1 mm^3 fragment of U87MG glioblastoma. Tumors were monitored as the neoplasms reached the desired size, approximately 190 mm^3. At 12 days, when the tumors attained a size between 172-256 mm^3 in calculated tumor volume, the animals were pair-matched into various treatment groups (the mean tumor volume in each group was 190-198 mm^3). Estimated tumor volume was calculated using the formula:
as §1
Compounds 3 and 45 were prepared by as described above. Compounds 3 and 45 were then prepared for administration as suspensions in 30% Captisol/100 mM citrate at pH 3.0. HuL2G7 was then provided as a 20.7 mg/ml stock solution in normal saline. The stock solution was diluted with normal saline to provide the formulation for injection.
The concentration of each compound was such that the desired dose was delivered in a volume of 5 μl per gram body weight. Dosing solutions of Compounds 3 and 45 were prepared fresh weekly and stored under refrigeration. Dosing solutions of HuL2G7 were prepared fresh prior to each treatment and were stored under refrigeration along with the stock solution.
On Day 1, animals were pairmatched by tumor size into 8 groups of 10 mice each. […] HuL2G7 was given i.v. at 10 mg/kg qwk×2. Treatment with all agents, either alone or in combination, was initiated on Day 1. Mice treated with monotherapy received the vehicle used for the other agent. There was a vehicle control group which received the Captisol/citrate, pH 3.0 vehicle p.o. qd×14 as well as saline i.v. qwk×2. Treatment groups were compared for statistical significance to the vehicle control. Groups that received the combinations were compared for statistical significance to the monotherapy groups that received the two agents used in combination. The experiment was terminated on Day 43.
as §2
where TTE is expressed in days, endpoint volume is in mm^3, b is the intercept, and m is the slope of the line obtained by linear regression of a log-transformed tumor growth data set. The data set is comprised of the first observation that exceeded the study endpoint volume and the three consecutive observations that immediately preceded the attainment of the endpoint volume. The calculated TTE is usually less than the day on which an animal is euthanized for tumor size. […] Animals classified as treatment related deaths (TR) or non-treatment-related metastatic deaths (NTRm) are assigned a TTE value equal to the day of death. Animals classified as non-treatment-related deaths (NTRu or NTRa) are excluded from TTE calculations.
Treatment efficacy was determined from tumor growth delay (TGD), which is defined as the increase in the median TTE for a treatment group compared to the control group:
expressed in days, or as a percentage of the median TTE of the control group: […]

[3] abbreviates: monotherapy, text summary over doses (Compound 45 daily for 14 days; HuL2G7 i.v. qwk x 2).
[4] abbreviates: monotherapy: Compound 45 10.8 mg/kg p.o. qd x 14 (HuL2G7 0).
Where [5] appears, read: monotherapy: Compound 45 32.4 mg/kg p.o. qd x 14 (HuL2G7 0).
The mark [6] stands for this setting: monotherapy: Compound 45 108 mg/kg p.o. qd x 14 (HuL2G7 0).

`Cn1cc(-c2ccc3nnn(Cc4ccc5nc(NC(=O)C6CC6)cn5n4)c3c2)cn1` [Compound 13, N-(6-((6-(1-methyl-1H-pyrazol-4-yl)-1H-benzo[d][1,2,3]triazol-1-yl)methyl)imidazo[1,2-b]pyridazin-2-yl)cyclopropanecarboxamide] had a melting point of 250.2 to 251.6 °C.

As to `Cn1cc(-c2ccc3nnc(C(F)(F)c4ccc5nc(NC(=O)C6CC6)cn5n4)n3c2)cn1` [Compound 45, N-(6-(difluoro(6-(1-methyl-1H-pyrazol-4-yl)-[1,2,4]triazolo[4,3-a]pyridin-3-yl)methyl)imidazo[1,2-b]pyridazin-2-yl)cyclopropanecarboxamide], the values for the induction of regressions result in the data set on Human U87MG Glioblastoma [1] (monotherapy) and in the data set on Human U87MG Glioblastoma [2] were “Neither agent was able to induce regressions” and “Neither of these agents was able to induce regressions”, respectively. Also, the tumor growth delays is 3 to 4 days in the data set with Human U87MG Glioblastoma [1] (setting [3]) and 3 days in the data set on Human U87MG Glioblastoma [2]. In addition, the “tumor growth delays (% of median TTE of control)” value is reported as “ca. 30%” with Human U87MG Glioblastoma [1] (setting [3]) and “ca. 23%” in the data set with Human U87MG Glioblastoma [2]. The “Regressions (CR/PR per 10 mice)” value with Human U87MG Glioblastoma [1] (setting [4]), in the data set on Human U87MG Glioblastoma [1] (setting [5]) and in the data set on Human U87MG Glioblastoma [1] (setting [6]) was 0/10 in each case. Also, the “Tumor Growth Delay (TGD)” value is reported as 0 days in the data set with Human U87MG Glioblastoma [1] (setting [4]), 3.9 days in the data set with Human U87MG Glioblastoma [1] (setting [5]) and 3.1 days in the data set on Human U87MG Glioblastoma [1] (setting [6]).

`O=C(Nc1cn2nc(Sc3nnc4ccccn34)ccc2n1)C1CC1` [Compound 3, N-(6-([1,2,4]triazolo[4,3-a]pyridin-3-ylthio)imidazo[1,2-b]pyridazin-2-yl)cyclopropanecarboxamide]: in the data set on Human U87MG Glioblastoma [2], the induction of regressions entry is “Neither of these agents was able to induce regressions”, the tumor growth delays stood at 3 days and the “tumor growth delays (% of median TTE of control)” value is “ca. 23%”.

One may read the melting point as the temperature, or range, at which the solid turns liquid.
